Assays:
[1] = test system: Freund's Complete Adjuvant (FCA)-induced inflammatory mechanical hyperalgesia in male SD rats; test: FCA-induced inflammatory mechanical hyperalgesia (Randall-Sellitto paw pressure);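 further: left hind paw withdrawal threshold (g) to rising pressure on an analgesymeter, FCA injected intraplantar 24 h earlier, thresholds taken before and 0.5, 1, 2 and 4 h after oral dosing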; settings: Compound III 0.039 mg/kg p.o. alone
Procedure: Materials: FCA containing 1 mg/ml of heat killed and dried Mycobacterium tuberculosis (H37RA strain) emulsified in mineral oil and mannide mono-oleate; Male SD rats weighing 170-220 g; Paw Pressure Analgesymeter (37215, Ugo Basile, Comerio, Italy); Compound I potassium; and Diclofenac sodium
Naïve withdrawal thresholds of the left hind paw to an increasing pressure (g) stimulus were measured in rats using the analgesymeter. FCA was injected (30 μl) into the plantar region of left paw of rats to induce the inflammatory hyperalgesia. Mechanical hyperalgesia (24 h after FCA injection) was assessed by measuring hind paw withdrawal thresholds.
The post-dose paw withdrawal thresholds were measured at 0.5, 1, 2 & 4 h after oral administration. The percentage (%) reversal of mechanical hyperalgesia was calculated as per standard procedure.
Naïve withdrawal thresholds of the left hind paw to an increasing pressure (g) stimulus were measured in rats using the analgesymeter. Freund's Complete Adjuvant (FCA) was injected (30 μl) into the plantar region of left paw of rats to induce the inflammatory hyperalgesia. Mechanical hyperalgesia (24 h after FCA injection) was assessed both pre- & post-dosing of drugs by measuring hind paw withdrawal thresholds. […] The post-dose paw withdrawal thresholds were measured at 0.5, 1, 2 & 4 h after oral administration. The % reversal of mechanical hyperalgesia was calculated.
Naïve withdrawal thresholds of the left hind paw to an increasing pressure (g) stimulus were measured in rats using the analgesymeter.

[2] = test system: FCA-induced thermal hyperalgesia in male SD rats; test: FCA-induced thermal hyperalgesia (Hargreaves apparatus); format: in vivo, rat (Sprague-Dawley); settings: Compound III 0.039 mg/kg p.o. alone; 0.5-4 h post-dose; Example 16, Table 19, FIG. 22
Procedure: The % reversal of mechanical/thermal hyperalgesia was calculated.

[3] = test system: MIA-osteoarthritis induced mechanical punctate allodynia in male SD rats; test: MIA-induced mechanical punctate allodynia (dynamic von Frey); format: in vivo, rat (Sprague-Dawley); settings: Compound III 0.132 mg/kg p.o. alone; 0.5-4 h post-dose; Example 19, Table 22, FIG. 25
Procedure: MIA was dissolved in 0.9% sterile saline and administered using a 26½ gauge needle. Contralateral knees were injected intra-articularly with 50 μl of 0.9% sterile saline. On the day of the experiment (20 h after MIA injection), rats were evaluated for pre-dose mechanical punctate allodynia to assess the effect of MIA. After regrouping the rats after randomization, the pre- & post-dose mechanical allodynia was assessed for both hind paws. […] The % reversal of punctate allodynia was calculated as per standard procedure. Animals were weighed and grouped as described in Table 22.

[4] = test system: Streptozotocin (STZ)-induced diabetic peripheral neuropathic hyperalgesia in male SD rats; test: Streptozotocin-induced diabetic peripheral neuropathic hyperalgesia; format: in vivo, rat (Sprague-Dawley); settings: Compound III 0.04 mg/kg p.o. alone; 0.5-4 h post-dose; Example 18, Table 21, FIG. 24
Procedure: (§1) Streptozotocin (STZ)-induced neuropathic hyperalgesia in rats is a model to screen potential therapeutics for diabetic painful neuropathy in human patients. Streptozotocin was dissolved in freshly prepared cold citrate buffer (0.1 M, pH—4.4). Diabetes was induced in overnight fasted male SD rats (weighing 250-300 g) by a single intraperitoneal injection of Streptozotocin (Sigma, 55 mg/kg, i.p). […] On the day of the experiment (13th day after STZ injection) rats were assessed for mechanical hyperalgesia using Randall-Sellito paw pressure analgesymeter. Animals were weighed and grouped as described in Table 9.
Rats were orally dosed with vehicle, duloxetine hydrochloride, Compound I potassium salt and combination (Duloxetine+Compound I).
as §1, with “pH —4.4).” for “pH—4.4).”, “Sprague Dawley” for “SD”, “rats” for “rats (weighing 250-300 g)”, “analgesymeter.” for “analgesymeter. Animals were weighed and grouped as described in Table 9.”
Rats were orally dosed with vehicle, different doses of duloxetine hydrochloride, Compound II disodium salt and combinations (duloxetine+Compound II—simultaneously). The post-dose paw withdrawal thresholds were measured at 1, 2 & 4 h after oral administration. […] Animals were weighed and grouped as described in Table 16.
Rats were orally dosed with vehicle, different doses of duloxetine hydrochloride, Compound III disodium salt and combinations (duloxetine+Compound III—simultaneously). […] Animals were weighed and grouped as described in Table 21.

`Cn1c(=O)c2c(CC(=O)N=c3scc(-c4ccc(C(F)(F)F)c(F)c4F)n3COP(=O)(O)O)nsc2n(C)c1=O` [Compound III, [4-[2,3-difluoro-4-(trifluoromethyl)phenyl]-2-{[(5,7-dimethyl-4,6-dioxo-4,5,6,7-tetrahydro[1,2]thiazolo[5,4-d]pyrimidin-3-yl)acetyl]imino}-1,3-thiazol-3(2H)-yl]methyl dihydrogen phosphate] was tested, and the “maximal % reversal of mechanical hyperalgesia” value ([1]; Example 16, Table 19, FIG. 21) was 17%, the “maximal % reversal of mechanical hyperalgesia” value ([1]; Example 17, Table 20, FIG. 23) was 17% and the “maximal % reversal of thermal hyperalgesia” value [2] was 22%. The “maximal % reversal of mechanical punctate allodynia” value [3] was 19% and the “maximal % reversal of hyperalgesia” value [4] was 19%.
